{
  "source": "paper PMC12446468",
  "about": "“Anti-inflammatory and cytotoxic assessment of flavonoids isolated from Viola odorata flowers with computer-guided docking study” (Scientific Reports, 2025)",
  "key": {"[1]": {"test": "MTT cytotoxicity assay, HepG2", "format": "cell-based, human", "conditions": "human, HepG2 cells (hepatocellular carcinoma), 48 h", "protocol": "(§1) The assessment of cytotoxicity for the methanolic extract and isolated flavonoids was performed under controlled and sterile conditions within a Class II A2 Laminar flow biosafety cabinet. The carcinoma cell lines used in this study was obtained from Nawah Scientific Inc. (Cairo, Egypt). The cells were cultured in Dulbecco’s Modified Eagle’s Medium, enriched with 10% heat-inactivated fetal bovine serum, 100 U/ml penicillin, and 100 μg/ml streptomycin sulfate, maintained at […] in humidified incubators with 5% CO2. Upon reaching approximately 80% confluence, the cells were subcultured using a trypsin–EDTA solution. Harvesting occurred during the logarithmic growth phase. The methanolic extract and isolated flavonoids were dissolved in DMSO and stored at − 20 °C. For each experimental trial, the stock solutions were mixed with the culture medium to obtain the required final concentrations.\n(§2) The effectiveness of the extract was compared to that of the reference drug, Doxorubicin. The percentage of cell viability was calculated by taking the ratio of the absorbance of the plant extract to that of the control, multiplied by 100. Furthermore, the IC50 value of the plant extract was determined using Sigma Plot software version 11 (Spw.exe) (https://sigmaplot.software.informer.com/11.0/)."}, "[2]": {"tested_on": "hepatocellular carcinoma (HepG2)", "test": "MTT cytotoxicity assay, HepG2", "format": "cell-based, human", "conditions": "Homo sapiens, HepG2, 48 h, read-out: IC50", "protocol": "as §1, §2"}, "[3]": {"test": "MTT cytotoxicity assay, HTC-116", "format": "cell-based, human", "conditions": "human, HTC-116 cells (human colorectal carcinoma), 48 h", "protocol": "as §1, §2"}, "[4]": {"tested_on": "human colorectal carcinoma cells (HTC-116)", "test": "MTT cytotoxicity assay, HTC-116", "format": "cell-based", "conditions": "Homo sapiens, HTC-116, 48 h, read-out: IC50", "protocol": "as §1, §2"}, "[5]": {"test": "MTT cytotoxicity assay, Caco-2", "format": "cell-based, human", "conditions": "human, Caco-2 cells (human colonic epithelial cells), 48 h", "protocol": "as §1, §2"}, "[6]": {"tested_on": "human colonic epithelial cells (Caco-2)", "test": "MTT cytotoxicity assay, Caco-2", "format": "cell-based", "conditions": "Homo sapiens, Caco-2, 48 h, read-out: IC50", "protocol": "as §1, §2"}},
  "data": [
    {"compound": "COc1cccc2c1C(=O)c1c(O)c3c(c(O)c1C2=O)C[C@@](O)(C(=O)CO)C[C@@H]3O[C@H]1C[C@H](N)[C@H](O)[C@H](C)O1", "note": "[Doxorubicin, reference compound]", "values": [
      {"measurement": "cytotoxicity at 48 h, 6.25 µg/ml", "setting": "[1]; HepG2, 6.25 ug/ml", "result": 31.8, "unit": "%"},
      {"measurement": "viability at 48 h, 6.25 µg/ml", "setting": "[1]; HepG2, 6.25 ug/ml, read-out: % Cell viability", "result": 68.2, "unit": "%"},
      {"measurement": "cytotoxicity at 48 h, 12.5 µg/ml", "setting": "[1]; HepG2, 12.5 ug/ml", "result": 37.7, "unit": "%"},
      {"measurement": "viability at 48 h, 12.5 µg/ml", "setting": "[1]; HepG2, 12.5 ug/ml, read-out: % Cell viability", "result": 62.3, "unit": "%"},
      {"measurement": "cytotoxicity at 48 h, 25 µg/ml", "setting": "[1]; HepG2, 25 ug/ml", "result": 60.1, "unit": "%"},
      {"measurement": "viability at 48 h, 25 µg/ml", "setting": "[1]; HepG2, 25 ug/ml, read-out: % Cell viability", "result": 39.9, "unit": "%"},
      {"measurement": "cytotoxicity at 48 h, 50 µg/ml", "setting": "[1]; HepG2, 50 ug/ml", "result": 76, "unit": "%"},
      {"measurement": "viability at 48 h, 50 µg/ml", "setting": "[1]; HepG2, 50 ug/ml, read-out: % Cell viability", "result": 24, "unit": "%"},
      {"measurement": "cytotoxicity at 48 h, 100 µg/ml", "setting": "[1]; HepG2, 100 ug/ml", "result": 92, "unit": "%"},
      {"measurement": "viability at 48 h, 100 µg/ml", "setting": "[1]; HepG2, 100 ug/ml, read-out: % Cell viability", "result": 7.95, "unit": "%"},
      {"measurement": "IC50", "setting": "[2]", "result": 23.6, "unit": "µg/mL"},
      {"measurement": "cytotoxicity at 48 h, 6.25 µg/ml", "setting": "[3]; HTC-116, 6.25 ug/ml", "result": 31, "unit": "%"},
      {"measurement": "viability at 48 h, 6.25 µg/ml", "setting": "[3]; HTC-116, 6.25 ug/ml, read-out: % Cell viability", "result": 69, "unit": "%"},
      {"measurement": "cytotoxicity at 48 h, 12.5 µg/ml", "setting": "[3]; HTC-116, 12.5 ug/ml", "result": 43.1, "unit": "%"},
      {"measurement": "viability at 48 h, 12.5 µg/ml", "setting": "[3]; HTC-116, 12.5 ug/ml, read-out: % Cell viability", "result": 56.9, "unit": "%"},
      {"measurement": "cytotoxicity at 48 h, 25 µg/ml", "setting": "[3]; HTC-116, 25 ug/ml", "result": 53.8, "unit": "%"},
      {"measurement": "viability at 48 h, 25 µg/ml", "setting": "[3]; HTC-116, 25 ug/ml, read-out: % Cell viability", "result": 46.2, "unit": "%"},
      {"measurement": "cytotoxicity at 48 h, 50 µg/ml", "setting": "[3]; HTC-116, 50 ug/ml", "result": 70, "unit": "%"},
      {"measurement": "viability at 48 h, 50 µg/ml", "setting": "[3]; HTC-116, 50 ug/ml, read-out: % Cell viability", "result": 30, "unit": "%"},
      {"measurement": "cytotoxicity at 48 h, 100 µg/ml", "setting": "[3]; HTC-116, 100 ug/ml", "result": 91.2, "unit": "%"},
      {"measurement": "viability at 48 h, 100 µg/ml", "setting": "[3]; HTC-116, 100 ug/ml, read-out: % Cell viability", "result": 8.77, "unit": "%"},
      {"measurement": "IC50", "setting": "[4]", "result": 25.7, "unit": "µg/mL"},
      {"measurement": "cytotoxicity at 48 h, 6.25 µg/ml", "setting": "[5]; Caco-2, 6.25 ug/ml", "result": 28.1, "unit": "%"},
      {"measurement": "viability at 48 h, 6.25 µg/ml", "setting": "[5]; Caco-2, 6.25 ug/ml, read-out: % Cell viability", "result": 71.9, "unit": "%"},
      {"measurement": "cytotoxicity at 48 h, 12.5 µg/ml", "setting": "[5]; Caco-2, 12.5 ug/ml", "result": 41.6, "unit": "%"},
      {"measurement": "viability at 48 h, 12.5 µg/ml", "setting": "[5]; Caco-2, 12.5 ug/ml, read-out: % Cell viability", "result": 58.4, "unit": "%"},
      {"measurement": "cytotoxicity at 48 h, 25 µg/ml", "setting": "[5]; Caco-2, 25 ug/ml", "result": 53.9, "unit": "%"},
      {"measurement": "viability at 48 h, 25 µg/ml", "setting": "[5]; Caco-2, 25 ug/ml, read-out: % Cell viability", "result": 46.1, "unit": "%"},
      {"measurement": "cytotoxicity at 48 h, 50 µg/ml", "setting": "[5]; Caco-2, 50 ug/ml", "result": 71.2, "unit": "%"},
      {"measurement": "viability at 48 h, 50 µg/ml", "setting": "[5]; Caco-2, 50 ug/ml, read-out: % Cell viability", "result": 28.8, "unit": "%"},
      {"measurement": "cytotoxicity at 48 h, 100 µg/ml", "setting": "[5]; Caco-2, 100 ug/ml", "result": 92.1, "unit": "%"},
      {"measurement": "viability at 48 h, 100 µg/ml", "setting": "[5]; Caco-2, 100 ug/ml, read-out: % Cell viability", "result": 7.87, "unit": "%"},
      {"measurement": "IC50", "setting": "[6]", "result": 27.1, "unit": "µg/mL"}
    ]}
  ]
}
